Laboratory results: US10005773B2, “1-(4-pyrimidinyl)-1H-pyrrolo[3,2-c]pyridine derivatives as NIK inhibitors” (Janssen Pharmaceutica NV, priority 2013, dated 2018)
Each block holds one molecule with its values, some of them ahead of it.

Columns and labels:
[1] = target: T1, Recombinant Human NF-kappaB-Inducing Kinase (NIK/MAP3K14) (Homo sapiens, UniProt Q99558); assay: Biological Assay A: inhibition of recombinant human NIK/MAP3K14 activity (MSD, MBP substrate); conditions: 25 μM ATP, 10 nM NIK/MAP3K14, 1 h at 25° C.; averaged over all batches; read-out: Biochemical (MSD MBP) IC50
T1 sequence (Q99558 whole entry): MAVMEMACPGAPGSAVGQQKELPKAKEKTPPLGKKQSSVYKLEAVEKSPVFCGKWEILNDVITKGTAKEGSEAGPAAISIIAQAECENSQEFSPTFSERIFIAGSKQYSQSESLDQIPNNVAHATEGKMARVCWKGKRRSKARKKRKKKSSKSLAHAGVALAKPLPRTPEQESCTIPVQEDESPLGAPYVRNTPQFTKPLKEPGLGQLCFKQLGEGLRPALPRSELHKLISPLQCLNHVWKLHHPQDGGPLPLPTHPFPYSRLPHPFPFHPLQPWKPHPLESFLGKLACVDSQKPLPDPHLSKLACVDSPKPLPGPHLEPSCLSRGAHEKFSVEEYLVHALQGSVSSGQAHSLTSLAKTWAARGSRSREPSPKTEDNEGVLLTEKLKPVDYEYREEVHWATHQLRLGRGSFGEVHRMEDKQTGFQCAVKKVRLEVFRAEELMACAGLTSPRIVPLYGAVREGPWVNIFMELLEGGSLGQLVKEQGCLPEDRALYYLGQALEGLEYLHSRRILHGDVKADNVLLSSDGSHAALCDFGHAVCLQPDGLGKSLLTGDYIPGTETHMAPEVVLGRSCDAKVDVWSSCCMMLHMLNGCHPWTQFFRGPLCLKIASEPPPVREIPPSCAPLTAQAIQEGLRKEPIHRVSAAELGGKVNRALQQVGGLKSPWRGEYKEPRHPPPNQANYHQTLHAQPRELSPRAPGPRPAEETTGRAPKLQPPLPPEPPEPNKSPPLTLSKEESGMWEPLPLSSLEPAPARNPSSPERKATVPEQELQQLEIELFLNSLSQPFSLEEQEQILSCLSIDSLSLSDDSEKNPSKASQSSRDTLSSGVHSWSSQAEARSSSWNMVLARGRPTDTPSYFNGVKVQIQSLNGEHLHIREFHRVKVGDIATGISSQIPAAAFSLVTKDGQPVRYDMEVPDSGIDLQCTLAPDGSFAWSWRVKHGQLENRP
Experimental: Inhibition of Recombinant Human NF-kappaB-Inducing Kinase (NIKIMAP3K14) Activity
Assay buffer was 50 mM Tris pH 7.5 containing 1 mM ethylene glycol tetraacetic acid (EGTA), 1 mM dithiothreitol (DTT), 0.1 mM Na3VO4, 5 mM MgCl2, 0.01% Tween® 20. Assays were carried out in 384 well Mesoscale high binding plates which had been coated with myelin basic protein (MBP) and blocked with bovine serum albumin to prevent non-specific protein binding. All compounds tested were dissolved in dimethyl sulfoxide (DMSO) and further dilutions were made in assay buffer. Final DMSO concentration was 1% (v/v) in assays. Incubations consisted of compound (1% DMSO in control and blank wells), 25 μM Adenosine-5′-triphosphate (ATP), and 10 nM NIK/MAP3K14 substituting enzyme with buffer in the blank wells. Incubations were carried out for 1 h at 25° C. and were followed by washing and sequential incubation with rabbit anti-phospho-MBP and anti-rabbit Ig Sulfotag antibody before reading bound Sulfotag on a Mesoscale Discovery. Signal obtained in the wells containing blank samples was subtracted from all other wells and IC50's were determined by fitting a sigmoidal curve to % inhibition of control versus Log10 compound concentration.

[2] = target: T1, Recombinant Human NF-kappaB-Inducing Kinase (NIK/MAP3K14); assay: Biological Assay A2: inhibition of auto-phosphorylation of recombinant human NIK/MAP3K14 (AlphaScreen); type: biochemical; conditions: 25 microM ATP, 0.2 nM NIK/MAP3K14, 1 h at 25° C., averaged over all batches, read-out: Alpha-Screen IC50
Experimental: Inhibition of Auto-Phosphorylation of Recombinant Human NF-kappaB-Inducing Kinase (NIKIMAP3K14) Activity (AlphaScreen®)
NIK/MAP3K14 auto-phosphorylation activity was measured using the AlphaScreen® (ascreen) format (Perkin Elmer). All compounds tested were dissolved in dimethyl sulfoxide (DMSO) and further dilutions were made in assay buffer. Final DMSO concentration was 1% (v/v) in assays. Assay buffer was 50 mM Tris pH 7.5 containing 1 mM EGTA (ethylene glycol tetraacetic acid), 1 mM DTT (dithiothreitol), 0.1 mM Na3VO4, 5 mM MgCl2, 0.01% Tween® 20. Assays were carried out in 384 well Alphaplates (Perkin Elmer). Incubations consisted of compound, 25 microM Adenosine-5′-triphosphate (ATP), and 0.2 nM NIK/MAP3K14. Incubations were initiated by addition of GST-tagged NIK/MAP3K14 enzyme, carried out for 1 h at 25° C. and terminated by addition of stop buffer containing anti-phospho-IKK Ser176/180 antibody. Protein A Acceptor and Glutathione-Donor beads were added before reading using an EnVision® Multilabel Plate Reader (Perkin Elmer). Signal obtained in the wells containing blank samples was subtracted from all other wells and IC50's were determined by fitting a sigmoidal curve to % inhibition of control versus Log10 compound concentration.

[3] = test system: P-IKKα levels in L363 cells; assay: Biological Assay B: effect of compounds on P-IKKα levels in L363 cells; type: cell-based; conditions: Homo sapiens, L-363, BAFF stimulated, 2 hr treatment, averaged over all batches, read-out: IKKα Cellular IC50
Experimental: Effect of Compounds on P-IKKα Levels in L363 Cells
All compounds tested were dissolved in DMSO and further dilutions were made in culture medium. Final DMSO concentration was 1% (v/v) in cell assays. The human L363 cells (ATCC) were cultured in RPMI 1640 medium supplemented with GlutaMax and 10% fetal calf serum (PAA). Cells were routinely maintained at densities of 0.2×10^6 cells per ml-1×10^6 cells per ml at 37° C. in a humidified 5% CO2 atmosphere. Cells were passaged twice a week splitting back to obtain the low density. Cells were seeded in 96 well plates (Nunc 167008) at 2×10^6 per ml media in a volume of 75 μl per well plus 25 μl 1 μg/ml recombinant human B-cell activating factor (BAFF/BLyS/TNFSF13B). Seeded cells were incubated at 37° C. in a humidified 5% CO2 atmosphere for 24 hr. Drugs and/or solvents were added (20 μl) to a final volume of 120 μl. Following 2 hr treatment plates were removed from the incubator and cell lysis was achieved by the addition of 30 μl 5× lysis buffer followed by shaking on a plate shaker at 4° C. for 10 min. At the end of this incubation lysed cells were centrifuged at 800×g for 20 min at 4° C. and the lysate was assessed for P-IKKα levels by sandwich immuno-assay carried out in anti-rabbit antibody coated Mesoscale plates. Within an experiment, the results for each treatment were the mean of 2 replicate wells. For initial screening purposes, compounds were tested using an 8 point dilution curve (serial 1:3 dilutions). For each experiment, controls (containing MG132 and BAFF but no test drug) and a blank incubation (containing MG132 and BAFF and 10 μM ADS125117, a test concentration known to give full inhibition) were run in parallel. The blank incubation value was subtracted from all control and sample values. To determine the IC50 a sigmoidal curve was fitted to the plot of % inhibition of control P-IKKα levels versus Log10 compound concentration.

JJN-3 cells = assay: Biological Assay C: antiproliferative activity on JJN-3 cells (CellTiter-Glo); type: cell-based; conditions: Homo sapiens, 72 hr treatment
Experimental: (§1) Determination of Antiproliferative Activity on LP-1, L-363 and JJN-3 Cells
(§2) All compounds tested were dissolved in DMSO and further dilutions were made in culture medium. Final DMSO concentration was 0.3% (v/v) in cell proliferation assays. Viability was assessed using CellTiter-Glo cell viability assay kit (Promega). The human LP-1, L-363 and JJN-3 cells (DSMZ) were cultured in RPMI 1640 medium supplemented with 2 mM L-glutamine, and 10% fetal calf serum (PAA). Cells were routinely kept as suspension cells at 37° C. in a humidified 5% CO2 atmosphere. Cells were passaged at a seeding density of 0.2×10^6/ml twice a week. Cells were seeded in black tissue culture treated 96-well plates (Perkin Elmer). Densities used for plating ranged from 2,000 to 6,000 cells per well in a total volume of 75 μl medium. After twenty four hours, drugs and/or solvents were added (25 μl) to a final volume of 100 μl. Following 72 hr of treatment plates were removed from the incubator and allowed to equilibrate to room temperature for approx 10 min. 100 μl CellTiter-Glo reagent was added to each well that was then covered (Perkin Elmer Topseal) and shaken on plate shaker for 10 min. Luminescence was measured on a HTS Topcount (Perkin Elmer). Within an experiment, the results for each treatment were the mean of 2 replicate wells. For initial screening purposes, compounds were tested using a 9 point dilution curve (serial 1:3 dilutions). For each experiment, controls (containing no drug) and a blank incubation (containing cells read at the time of compound addition) were run in parallel. The blank value was subtracted from all control and sample values. For each sample, the mean value for cell growth (in relative light units) was expressed as a percentage of the mean value for cell growth of the control.

L-363 cells = assay: Biological Assay C: antiproliferative activity on L-363 cells (CellTiter-Glo); type: cell-based; conditions: Homo sapiens, 72 hr treatment
Experimental: as §1, §2

LP-1 cells = assay: Biological Assay C: antiproliferative activity on LP-1 cells (CellTiter-Glo); type: cell-based; conditions: Homo sapiens, 72 hr treatment
Experimental: as §1, §2

SMILES: CC(C)(O)C#Cc1cc2c(cn1)c(C(N)=O)cn2-c1ccnc(N)n1 [Compound 14]
- IC50 [1]: 28 nM
- IC50 [2]: 185 nM
- IC50 [3]: 1240 nM
- EC50 (JJN-3 cells): 10700 nM
- EC50 (L-363 cells): 12700 nM
- EC50 (LP-1 cells): > 30000 nM

SMILES: Nc1ncc(F)c(-n2ccc3cnc(C#CC4(O)CCCC4)cc32)n1 [Compound 13]
- IC50 [1]: 18 nM
- IC50 [2]: 7.7 nM
- IC50 [3]: 44 nM
- EC50 (JJN-3 cells): 872 nM
- EC50 (L-363 cells): 4260 nM
- EC50 (LP-1 cells): 3270 nM

SMILES: Cc1cnc(N)nc1-n1ccc2cnc(C#CC(C)(C)O)cc21 [Compound 11]
- IC50 [1]: 115 nM
- IC50 [2]: 232 nM
- IC50 [3]: 330 nM
- EC50 (JJN-3 cells): 2720 nM
- EC50 (L-363 cells): 3770 nM
- EC50 (LP-1 cells): 5840 nM

SMILES: CC(C)(O)C#Cc1cc2c(ccn2-c2nc(N)ncc2Cl)cn1 [Compound 7]
- IC50 [1]: 3.8 nM
- IC50 [2]: 16 nM
- IC50 [3]: 163 nM
- EC50 (JJN-3 cells): 1050 nM
- EC50 (L-363 cells): 977 nM
- EC50 (LP-1 cells): 1900 nM

SMILES: CCCCOCc1cn(-c2ccnc(N)n2)c2cc(C#CC(C)(C)O)ncc12 [Compound 17]
- IC50 [1]: 82 nM
- IC50 [2]: 259 nM
- IC50 [3]: 199 nM
- EC50 (JJN-3 cells): 333 nM
- EC50 (L-363 cells): 464 nM
- EC50 (LP-1 cells): 460 nM

Further molecules by falling IC50 [1], results first:

- IC50 [1]: 40 nM
- IC50 [2]: 37 nM
- IC50 [3]: 183 nM
SMILES: CN1CCC(c2cn(-c3ccnc(N)n3)c3cc(C#CC4(O)CCCC4)ncc23)CC1 [Compound 24]
- EC50 (JJN-3 cells): 779 nM
- EC50 (L-363 cells): 512 nM
- EC50 (LP-1 cells): 4240 nM

- IC50 [1]: 37 nM
- IC50 [2]: 59 nM
- IC50 [3]: 1310 nM
SMILES: CNC(=O)c1cn(-c2ccnc(N)n2)c2cc(C#CC(C)(C)O)ncc12 [Compound 15]
- EC50 (JJN-3 cells): 3330 nM
- EC50 (L-363 cells): 7180 nM
- EC50 (LP-1 cells): > 30000 nM

- IC50 [1]: 6.5 nM
- IC50 [2]: 16 nM
- IC50 [3]: 16 nM
SMILES: CC(C)c1cn(-c2ccnc(N)n2)c2cc(C#CC(C)(C)O)ncc12 [Compound 22]
- EC50 (JJN-3 cells): 49 nM
- EC50 (L-363 cells): 47 nM
- EC50 (LP-1 cells): 131 nM
